Laboratory results as given in patent EP0398217B1, “Dehydrocholecalciferol derivatives” (F. HOFFMANN-LA ROCHE AG, priority 1989, dated 1990).
Marks after values point to notes of the source that are not given here.

Legend:
menschlichen Sebocyten = experiment: Inhibition of sebocyte proliferation in vitro (sebocytes cultured on 3T3 fibroblast layer, cell count by haemocytometer); type: cell-based; settings: amount inhibiting sebocyte proliferation by 50% versus solvent-treated control culture, read-out: ED₅₀
Description: 22a, Abstract 46 beschriebenen Methode isoliert und auf einer Schicht von Mäusen-Fibroblasten 3T3 kultiviert. Durch enzymatische und mechanische Methoden wurde aus Hautgewebe eine Suspension von Sebocyten hergestellt. Dazu wurden die Zellen entweder in 2% Humanserum, 8% fetales Kälberserum und 4 µg/ml Dexamethason oder in 10% fetales Kälberserum und 4 µg/ml Dexamethason enthaltendem Iscove-Medium kultiviert
Den Kulturen wurden die Testverbindungen im Medium alle 48 Stunden zugegeben. Nach der letzten Zugabe wurden die Fibroblasten 3T3 mit 0,03% EDTA in PBS abgespült. Die zurückbleibenden Sebocyten-Kolonien wurden in 0,05% Trypsin/0,03% EDTA unter Bildung einer einheitlichen Zellensuspension von Sebocyten inkubiert. Die Zellen wurden dann verdünnt und mittels eines Hämocytometers gezählt.
Es wurden 10⁻² M äthanolische Lösungen der Testverbindungen vorbereitet und dann auf 10⁻⁶, 10⁻⁷, 10⁻⁸ und 10⁻⁹ M verdünnt.
Die Resultate sind in der nachstehenden Tabelle 1 als Menge der Verbindung, die die Proliferation der Sebocyten um 50% gegenüber einem Kontrollwert hemmen, angegeben. Der Kontrollwert wurde aus einer lediglich mit Lösungsmittel behandelten Zellenkultur erhalten. Tabelle 1

[1] = test system: Talgdrüsen des Hamsterohrs; experiment: Effect on sebaceous glands of the hamster ear after oral administration (daily for 4 weeks); type: in vivo, syrischen Goldhamstern; settings: change of sebaceous gland cross-section
Description: Der Effekt von Verbindungen der Formel I auf die Talgdrüsen des Hamsterohrs nach oraler Verabreichung wurde ermittelt. Männlichen syrischen Goldhamstern wurden täglich 200 µl einer Lösung der Testverbindungen in Propylenglykol oral verabreicht. Nach 4 Wochen wurden die Tiere getötet. Die Fläche der Talgdrüsen auf den Ohren wurde ermittelt. Die Resultate sind in Tabelle 4 als Veränderung im Querschnitt der Talgdrüsen des Hamsterohrs angegeben: Tabelle 4

[2] = Soft tissue calcification in rats (45Ca radioactivity in heart and kidneys); type: in vivo, Ratten; settings: ratio relative to compound X (=1); for Verkalkungsverhältnis Subkutan: subcutaneous administration for 4 days; for Verkalkungsverhältnis Topisch: topical administration for 4 days
Description: Zum Nachweis der Verkalkung von weichem Gewebe durch die Verbindungen der Formel I erhielten Ratten subkutane Injektionen von 40 µCi ⁴⁵Ca. Die Verbindungen wurden dann subkutan oder topisch während 4 Tagen den Tieren verabreicht. Die Ratten wurden 1 Tag nach der letzten Injektion getötet. Herz und Nieren wurden entfernt und mit Salpetersäure behandelt. Es wurde die Radioaktivität einer Menge von 0,2 ml dieser Präparation gemessen.

[3] = test system: Talgdrüsen des Hamsterohrs; experiment: Topical activity on sebaceous glands of the hamster ear (daily application for 4 weeks); type: in vivo; settings: change of sebaceous gland cross-section versus acetone controls
Description: Die topische Wirksamkeit von Verbindungen der Formel I gegen Akne wurde an Talgdrüsen des Hamsterohrs gemessen. Versuchstieren wurden 50 µl einer Lösung der Testverbindung und Kontrolltieren 50 µl Aceton täglich auf das Ohr appliziert. Nach 4 Wochen wurden die Tiere getötet. Die Fläche der Talgdrüsen auf den Ohren wurde ermittelt. In der Tabelle 2 sind die Resultate als %-Aenderung gegenüber Kontrolltieren der Veränderung des Querschnitts der Talgdrüsen auf dem Hamsterohr angegeben: Tabelle 2

[4] = oral, 5,00 µg/kg daily in propylene glycol
[5] = topical, 10,00 µg/Hamster daily

## C=C1/C(=C\C=C2/CCC[C@]3(C)C([C@H](C)CCCC(C)(C)O)=CC[C@@H]23)C[C@@H](O)C[C@@H]1O [A, 1α,25-Dihydroxy-16-dehydrocholecalciferol]
Menschlichen Sebocyten
  EC50: 1 nM

## C=C1CC[C@H](O)C/C1=C/C=C1\CCC[C@]2(C)C([C@H](C)CC#CC(C)(C)O)=CC[C@@H]12 [F, 25-Hydroxy-16-dehydro-23-didehydrocholecalciferol]
[1]; oral, 0,05 µg/kg daily in propylene glycol
  % Veränderung: -16* %
[1]; oral, 0,50 µg/kg daily in propylene glycol
  % Veränderung: -23** %
[1]; [4]
  % Veränderung: -42*** %
[1]; oral, 50,00 µg/kg daily in propylene glycol
  % Veränderung: -55*** %
[2]
  Verkalkungsverhältnis Subkutan: >1400
  Verkalkungsverhältnis Topisch: >34
Menschlichen Sebocyten
  EC50: 100 nM
[3]; topical, 0,10 µg/Hamster daily
  % Aenderung: -23%
[3]; topical, 1,00 µg/Hamster daily
  % Aenderung: -40%
[3]; [5]
  % Aenderung: -64%

## C=C1CC[C@H](O)C/C1=C/C=C1\CCC[C@]2(C)C([C@H](C)C/C=C/C(C)(C)O)=CC[C@@H]12 [Verbindung D, 25-Hydroxy-16,23E-bisdehydrocholecalciferol]
[1]; oral, 2,50 µg/kg daily in propylene glycol
  % Veränderung: -15* %
[1]; [4]
  % Veränderung: -22** %
[1]; oral, 10,00 µg/kg daily in propylene glycol
  % Veränderung: -27*** %
[1]; oral, 20,00 µg/kg daily in propylene glycol
  % Veränderung: -36*** %
[2]
  Verkalkungsverhältnis Subkutan: >1400
  Verkalkungsverhältnis Topisch: >34
Menschlichen Sebocyten
  EC50: > 1000 nM
[3]; topical, 0,10 µg/Hamster daily
  % Aenderung: -16%
[3]; topical, 1,00 µg/Hamster daily
  % Aenderung: -16%
[3]; [5]
  % Aenderung: -43%

## C=C1/C(=C\C=C2/CCC[C@]3(C)C([C@H](C)CC#CC(C)(C)O)=CC[C@@H]23)C[C@@H](O)C[C@@H]1O [Verbindung E, 1α,25-Dihydroxy-16-dehydro-23-didehydrocholecalciferol]
[2]
  Verkalkungsverhältnis Subkutan: 47
  Verkalkungsverhältnis Topisch: > 1
Menschlichen Sebocyten
  EC50: 1 nM

## C=C1/C(=C\C=C2/CCC[C@]3(C)[C@@H]([C@H](C)CCCC(C)(C)O)CC[C@@H]23)C[C@@H](O)C[C@@H]1O [Verbindung X, 1α,25-Dihydroxycholecalciferol, reference compound]
[2]
  Verkalkungsverhältnis Subkutan: 1
  Verkalkungsverhältnis Topisch: 1
Menschlichen Sebocyten
  EC50: 5 nM
